# Residues, ends and D or L forms follow the SMILES beside them.
# Biological target: T1, human uPAR (Homo sapiens, UniProt Q03405)
# T1 construct: made in house
# Assay: Ligand:uPAR interaction in vitro (binding affinity)
# Settings: binding affinity towards human uPAR
# Description: In table 2, the amino acids sequences of each peptid conjugate with the corresponding binding affinity towards human uPAR are shown. Residues in bold is important for the interaction with uPAR. A substitution of two of these important amino acids (Phe^3 and Trp^8) with Glu, results in a complete loss of affinity towards uPAR. […] Importantly, no reduction in affinity is caused by conjugation of DOTA chelator in the N-terminal, illustrated with identical IC50-value between the un-conjugated peptide AE105 and the conjugated form DOTA-AE105.
# T1 sequence (Q03405 23-305): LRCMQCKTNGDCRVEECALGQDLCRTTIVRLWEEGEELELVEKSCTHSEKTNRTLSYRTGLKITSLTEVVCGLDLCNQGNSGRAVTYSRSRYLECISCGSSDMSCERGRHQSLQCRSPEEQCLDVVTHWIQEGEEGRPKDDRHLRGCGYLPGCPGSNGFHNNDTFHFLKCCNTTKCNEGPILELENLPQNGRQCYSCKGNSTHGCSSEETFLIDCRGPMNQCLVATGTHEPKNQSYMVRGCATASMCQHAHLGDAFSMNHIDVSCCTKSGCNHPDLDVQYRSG
row,SMILES,IC50 [nM]
1,"CC(C)C[C@H](NC(=O)[C@H](Cc1ccc(O)cc1)NC(=O)[C@@H](CCCNC(=N)N)NC(=O)[C@@H](CO)NC(=O)[C@H](Cc1ccccc1)NC(=O)[C@H](CC1CCCCC1)NC(=O)[C@@H](N)CC(=O)O)C(=O)N[C@@H](Cc1c[nH]c2ccccc12)C(=O)N[C@@H](CO)C(N)=O [AE105, Asp^1-Cha^2-Phe^3-ser^4-arg^5-Tyr^6-Leu^7-Trp^8-Ser^9]",6.7
2,"CC(C)C[C@H](NC(=O)[C@H](Cc1ccc(O)cc1)NC(=O)[C@@H](CCCNC(=N)N)NC(=O)[C@@H](CO)NC(=O)[C@H](CCC(=O)O)NC(=O)[C@H](CC1CCCCC1)NC(=O)[C@H](CC(=O)O)NC(=O)CN1CCN(CC(=O)O)CCN(CC(=O)O)CCN(CC(=O)O)CC1)C(=O)N[C@@H](CCC(=O)O)C(=O)N[C@@H](CO)C(N)=O [DOTA-AE105mut, DOTA-Asp-Cha-Glu-(D)Ser-(D)Arg-Tyr-Leu-Glu-Ser-CONH2] (HELM PEPTIDE1{[O=C(O)CN1CCN(CC(=O)O)CCN(CC(=O)[*:2])CCN(CC(=O)O)CC1].D.[Cha].E.[dS].[dR].Y.L.E.S.[am]}$$$$V2.0)",> 10
